Among the data in patent US9073821B2, “Hydroxamic acid derivative” (priority 2010, dated 2015) are IC50 values, retold here.

Each structure is given as a SMILES string.

The first assay deals with Pseudomonas aeruginosa LpxC enzyme (Pseudomonas aeruginosa (strain ATCC 15692 / DSM 22644 / CIP 104116 / JCM 14847 / LMG 12228 / 1C / PRS 101 / PAO1), UniProt P47205). Kind of assay: biochemical. Type of assay: biochemical. The settings on record: class symbols A/B/C by IC50; Table 3; read-out: Enzyme inhibitory activity (inhibitory activity on Pseudomonas aeruginosa LpxC enzyme).
Regarding `CNC(=O)[C@@](C)(C(=O)NO)N(C)C(=O)c1ccc(C#Cc2coc(CN3CCOCC3)c2)cc1` [Compound 592, (2S)-N-hydroxy-N′,2-dimethyl-2-[methyl(4-{[5-(morpholin-4-ylmethyl)furan-3-yl]ethynyl}benzoyl)amino]propanediamide], the IC50 was under 10 nM.

As for `CNC(=O)C(C(=O)NO)N(C)C(=O)c1ccc(-c2ccc(CCCN3CCCOCC3)cc2)cc1` (stereo not drawn) [Compound 502, N-hydroxy-N′-methyl-2-[methyl({4′-[3-(1,4-oxazepan-4-yl)propyl]biphenyl-4-yl}carbonyl)amino]propanediamide], the IC50 fell in the range of 10 to 100 nM.

The assay is the same for the next values; noted with them: inhibitory activity on Pseudomonas aeruginosa LpxC enzyme, class symbols A/B/C; read-out: Enzyme inhibitory activity.
For `CNC(=O)C(C(=O)NO)N(C)C(=O)c1ccc(-c2ccc(N3CCC(CN4CCOCC4)C3)cc2)cc1` (stereo not drawn) [Compound 287, N-hydroxy-N′-methyl-2-[methyl({4′-[3-(morpholin-4-ylmethyl)pyrrolidin-1-yl]biphenyl-4-yl}carbonyl)amino]propanediamide], the IC50 is under 10 nM.

For the compound `CNC(=O)C(C(=O)NO)N(C)C(=O)c1ccc(-c2ccc(NC)c(C)c2)cc1` (stereo not drawn) [Compound 45, N-hydroxy-N′-methyl-2-(methyl {[3′-methyl-4′-(methylamino)biphenyl-4-yl]carbonyl}amino)propanediamide], the IC50 was under 10 nM.

For the compound `CNC(=O)C(C(=O)NO)N(C)C(=O)c1ccc(-c2ccc3ncsc3c2)cc1` (stereo not drawn) [Compound 199, 2-{[4-(1,3-benzothiazol-6-yl)benzoyl](methyl)amino}-N-hydroxy-N′-methylpropanediamide], the IC50 is under 10 nM.

For the compound `O=C(NC(C(=O)NO)C(=O)NCC(F)F)c1ccc(-c2ccc(OCCO)cc2)cc1` (stereo not drawn) [Compound 137, N-(2,2-difluoroethyl)-N′-hydroxy-2-({[4′-(2-hydroxyethoxy)biphenyl-4-yl]carbonyl}amino)propanediamide], the IC50 was in the range of 10 to 100 nM.

Regarding `CNC(=O)C(C(=O)NO)N(C)C(=O)c1ccc(-c2ccc(OCCCN3CCN(c4ccccc4)CC3)cc2)cc1` (stereo not drawn) [Compound 84, N-hydroxy-N′-methyl-2-[methyl({4′-[3-(4-phenylpiperazin-1-yl)propoxy]biphenyl-4-yl}carbonyl)amino]propanediamide], the IC50 is under 10 nM.

On to `CNC(=O)C(C(=O)NO)N(CC(F)F)C(=O)c1ccc(-c2ccccc2)cc1` (stereo not drawn) [Compound 174, 2-[(biphenyl-4-ylcarbonyl)(2,2-difluoroethyl)amino]-N-hydroxy-N′-methylpropanediamide], for which the IC50 is under 10 nM.

With `CNC(=O)C(C(=O)NO)N(C)C(=O)c1ccc(-c2cc(F)c(NC)cc2F)cc1` (stereo not drawn) [Compound 67, 2-[{[2′,5′-difluoro-4′-(methylamino)biphenyl-4-yl]carbonyl}(methyl)amino]-N-hydroxy-N′-methylpropanediamide], the IC50 was under 10 nM.

Take `Cn1cnc(CNC(=O)C(NC(=O)c2ccc(-c3ccc(OCCO)cc3)cc2)C(=O)NO)c1` (stereo not drawn) [Compound 158, N-hydroxy-2-({[4′-(2-hydroxyethoxy)biphenyl-4-yl]carbonyl}amino)-N′-[(1-methyl-1H-imidazol-4-yl)methyl]propanediamide]: the IC50 was under 10 nM.

Turning to `CNC(=O)C(C(=O)NO)N(C)C(=O)c1ccc(-c2ccc(N3CCCC3)cc2)cc1` (stereo not drawn) [Compound 256, N-hydroxy-N′-methyl-2-(methyl {[4′-(pyrrolidin-1-yl)biphenyl-4-yl]carbonyl}amino)propanediamide], the IC50 is under 10 nM.

On to `CNC(=O)C(C(=O)NO)N(C)C(=O)c1ccc(-c2ccc(OCCCN3CC(C)OC(C)C3)cc2)cc1` (stereo not drawn) [Compound 88, 2-[({4′-[3-(2,6-dimethylmorpholin-4-yl)propoxy]biphenyl-4-yl}carbonyl)(methyl)amino]-N-hydroxy-N′-methylpropanediamide], for which the IC50 was under 10 nM.

Consider `CCCS(=O)(=O)Nc1ccc(-c2ccc(C(=O)N(C)C(C(=O)NC)C(=O)NO)cc2)cc1` (stereo not drawn) [Compound 78, N-hydroxy-N′-methyl-2-[methyl({4′-[(propylsulfonyl)amino]biphenyl-4-yl}carbonyl)amino]propanediamide], for which the IC50 was 10 to 100 nM.

In the case of `CNC(=O)C(C(=O)NO)N(C)C(=O)c1ccc(-c2ccc(NCCCNc3ccccc3)cc2)cc1` (stereo not drawn) [Compound 100, N-hydroxy-N′-methyl-2-{methyl[(4′-{[3-(phenylamino)propyl]amino}biphenyl-4-yl)carbonyl]amino}propanediamide], the IC50 was under 10 nM.

Turning to `CN(C)C(=O)C(NC(=O)c1ccc(-c2ccc(OCCO)cc2)cc1)C(=O)NO` (stereo not drawn) [Compound 118, N′-hydroxy-2-({[4′-(2-hydroxyethoxy)biphenyl-4-yl]carbonyl}amino)-N,N-dimethylpropanediamide], the IC50 was over 100 nM.

Take `CNC(=O)C(C(=O)NO)N(C)C(=O)c1ccc(-c2ccc(OCCCN(C)Cc3c(F)cccc3F)cc2)cc1` (stereo not drawn) [Compound 92, 2-{[(4′-{3-[(2,6-difluorobenzyl)(methyl)amino]propoxy}biphenyl-4-yl)carbonyl](methyl)amino}-N-hydroxy-N′-methylpropanediamide]: the IC50 is under 10 nM.

With `CC(=O)NCCNC(=O)C(NC(=O)c1ccc(-c2ccc(OCCO)cc2)cc1)C(=O)NO` (stereo not drawn) [Compound 135, N-[2-(acetylamino)ethyl]-N′-hydroxy-2-({[4′-(2-hydroxyethoxy)biphenyl-4-yl]carbonyl}amino)propanediamide], the IC50 was under 10 nM.

For `CNC(=O)C(C(=O)NO)N(C)C(=O)c1ccc(-c2ccc(OC(C)C)cc2)cc1` (stereo not drawn) [Compound 213, N-hydroxy-N′-methyl-2-(methyl {[4′-(propan-2-yloxy)biphenyl-4-yl]carbonyl}amino)propanediamide], the IC50 is under 10 nM.

Regarding `CNC(=O)C(C(=O)NO)N(C)C(=O)c1ccc(-c2nc3ccccc3o2)cc1` (stereo not drawn) [Compound 347, 2-[{[4-(1,3-benzoxazol-2-yl)phenyl]carbonyl}(methyl)amino]-N-hydroxy-N′-methylpropanediamide], the IC50 was over 100 nM.

As for `CNC(=O)C(C(=O)NO)N(C)C(=O)c1ccc(-c2ccc(OC(F)(F)C(F)F)cc2)cc1` (stereo not drawn) [Compound 83, N-hydroxy-N′-methyl-2-(methyl {[4′-(1,1,2,2-tetrafluoroethoxy)biphenyl-4-yl]carbonyl}amino)propanediamide], the IC50 is under 10 nM.

For `CN(C(=O)c1ccc(-c2ccccc2)cc1)C(C(=O)NO)C(=O)NCc1ccncc1` (stereo not drawn) [Compound 178, 2-[(biphenyl-4-ylcarbonyl)(methyl)amino]-N-hydroxy-N′-(pyridin-4-ylmethyl)propanediamide], the IC50 was over 100 nM.

Take `CNC(=O)C(C(=O)NO)N(C)C(=O)c1ccc(-c2ccc(CCCCN3CCOCC3)cc2)cc1` (stereo not drawn) [Compound 221, N-hydroxy-N′-methyl-2-[methyl({4′-[4-(morpholin-4-yl)butyl]biphenyl-4-yl}carbonyl)amino]propanediamide]: the IC50 is under 10 nM.

As for `CNC(=O)C(C(=O)NO)N(C)C(=O)c1ccc(C#Cc2csc(COC)c2)cc1` (stereo not drawn) [Compound 436, N-hydroxy-2-[(4-{[5-(methoxymethyl)thiophen-3-yl]ethynyl}benzoyl)(methyl)amino]-N′-methylpropanediamide], the IC50 is 10 to 100 nM.

With `CNC(=O)C(C(=O)NO)N(C)C(=O)c1ccc(-c2ccc(OC)nc2)cc1` (stereo not drawn) [Compound 449, N-hydroxy-2-[{[4-(6-methoxypyridin-3-yl)phenyl]carbonyl}(methyl)amino]-N′-methylpropanediamide], the IC50 lay in the range of 10 to 100 nM.
